In patent US20170176446A1, “Methods for Determining the Oncogenic Condition of Cell, Uses Thereof, and Methods for Treating Cancer” (INSERM (INSTITUT NATIONAL DE LA SANTE ET DE LA RECHERCHE …, priority 2009, published 2017):

Columns and labels:
TS/A cells = experiment: Tumor size of TS/A tumors implanted in BALB/c mice, intratumoral treatment; type: in vivo; conditions: PBPE 40 μM, 100 μl intratumorally once a day
Experimental: A cell culture of TS/A cells was first performed. These TS/A cells are mouse mammary adenocarcinomas (see Nanni P et al., Clin. Exp. Metastasis, 1983 October-December; 1(4): 373-80). The cells are cultured, at 37° C. under 5% CO2, in a DMEM medium supplemented with 2 g/liter of sodium carbonate, 1.2 mM of glutamine (pH 7.4 at 23° C.), 5% of fetal bovine serum (Gibco) and 2.5 ml of antibiotics per liter of medium (penicillin/streptomycin).
The TS/A cells are recovered with trypsin, washed twice and suspended in PBS buffer. The TS/A cells (approximately 4×10^6 […] cells/0.1 ml) are then injected subcutaneously into the flank of 6-week-old female BALB/c mice (supplied by Charles River). […] The animals (10 mice per group) are monitored regularly for tumor development. The volume of the tumors is calculated according to the following formula: L×l^2×0.5 (L is the length and l is the width of the tumor). The experiment was reproduced twice. The results are given in FIG. 18 (the arrow indicates the beginning of the treatment).

OCDO = OCDO content of TS/A tumors by GC/MS; type: in vivo, mice; conditions: PBPE 40 μM, 100 μl intratumorally once a day
Experimental: 5 volumes (relative to the mass removed) of buffer (50 mM Tris-HCl, 150 mM KCl, pH=7.4) are added. The tumors are ground and the homogenates are centrifuged for 5 minutes at 2500 rpm at 4° C. […] After centrifugation (to separate the phases), the organic phase is recovered. The organic phase is evaporated to dryness and then the residue is taken up with 0.5 ml of chloroform. The organic extracts are filtered on 0.5 ml silica cartridges. The polar sterols are eluted sequentially:
1) 0.5 ml of a hexane/chloroform mixture (1/1), 2) 0.5 ml of chloroform, 3) 0.5 ml of ethyl acetate and methanol.
The ethyl acetate fractions are evaporated, silylated (50 μl 1/1 acetonitrile/BSTFA) and then analyzed by GC/MS (2 μl) according to the conditions described above.

## c1ccc(Cc2ccc(OCCN3CCCC3)cc2)cc1 [PBPE, N,N-pyrrolidino-[(4-benzyl)phenoxy]ethanamine]
TS/A cells; Day 28
  Tumor size (% control): 71.6 ± 7 % control
TS/A cells; Day 37
  Tumor size (% control): 54.5 ± 8 % control
OCDO; Day 28
  OCDO (% control): 22.5 ± 5 % control
OCDO; Day 37
  OCDO (% control): 9.6 ± 5 % control
